Source: patent US20260224582A1, “Heterobicyclic amides as inhibitors of CD38” (Cerevance, Inc., priority 2022, published 2026)
Read-outs that look alike come from different tables or passages of the source.

Assays:
[1] = PK brain permeability after single oral gavage; format: in vivo, C57BL/6 mice; details: mice, 10 mg/kg oral, 2 hours post dose; for concentration at 2 h / Kp at 2 h: male, C57BL/6, mouse; for concentration at 2 h: po, 10 mg/kg; for Kp at 2 h: read-out: Kpu, u (unbound partitioning coefficient, Cb,u to Cp,u); for brain permeability (in words): statement on Table 3
Method: The distribution of compounds into the brain in vivo was determined in C57BL/6 mice following single oral (po) gavage administration.
Test compounds were formulated at 1 mg/mL in 0.5% HPMC E4M, 0.2% Tween 80 in water to achieve solutions or homogenous suspensions suitable for po administration. Formulations were administered to 3 male C57BL/6 mice at a volume of 10 mL/kg resulting in a dose level of 10 mg/kg. Blood samples were collected at 1 and 2 hours post dose into tubes containing K2EDTA as anticoagulant, processed to plasma and stored at −60° C. or lower until LC-MS/MS analysis. Brains were harvested 2 hours post dose, rinsed with saline, dried, weighed and homogenised under ice cold conditions. Brain homogenates were stored at −60° C. or lower until LC-MS/MS analysis.
Dose formulation concentrations were verified using a LC-UV or LC-MS/MS method. Test compound concentrations in plasma and brain homogenate were quantitatively determined using LC-MS/MS methods developed in individual matrices against calibration curves with QC samples included and acceptance criteria as per CRO SOPs. Concentrations in brain homogenate were corrected for the dilution factor used to prepare the homogenate to give concentrations in whole brain tissue.
Plasma and brain concentration versus time data were reported and plotted in excel. The brain to plasma ratio at 2 hours post dose was calculated for each animal using the following equation:
Brain: plasma=brain concentration (ng/g) at 2 h/plasma concentration (ng/ml) at 2 h As only unbound test compound is available to exert an effect on the target, unbound plasma (Cp,u) and unbound brain (Cb,u) concentrations were calculated by correcting the total concentrations for the unbound fraction in plasma (fu,p) or brain (fu,b) determined from in vitro plasma protein or brain tissue binding assays using the following equations: […]
The unbound partitioning coefficient (Kpu,u) was then calculated based on the ratio of Cb,u to Cp,u using the following equation: […]
In these studies, mice were orally administrated a 10 mg/kg dose and sacrificed 2 hours post dose and tissue samples (brain homogenate and plasma) were analyzed subsequently as described above.

Recombinant human CD38 = target: T1, Recombinant human CD38 (Homo sapiens, UniProt P28907); test: Human CD38 hydrolase assay (fluorescence-based, ε-NAD substrate); format: biochemical; details: recombinant human CD38 0.8 nM, 4 μM ε-NAD, 30 min preincubation at 25° C.
T1 sequence (P28907 1-300): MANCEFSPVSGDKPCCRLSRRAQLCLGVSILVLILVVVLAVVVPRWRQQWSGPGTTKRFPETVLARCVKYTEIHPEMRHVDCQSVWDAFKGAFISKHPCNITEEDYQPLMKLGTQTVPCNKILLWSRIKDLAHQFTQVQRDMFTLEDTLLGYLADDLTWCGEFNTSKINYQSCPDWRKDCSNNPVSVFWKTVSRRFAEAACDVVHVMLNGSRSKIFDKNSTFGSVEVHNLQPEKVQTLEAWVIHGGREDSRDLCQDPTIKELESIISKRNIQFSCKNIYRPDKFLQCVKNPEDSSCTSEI
Summary of the method: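 Recombinant human CD38 (0.8 nM) preincubated 30 min at 25 °C with compound in PBS without Ca2+/Mg2+, 0.005% BSA, pH 7.4; reaction started with 4 μM ε-NAD. Fluorescence (ex 300/em 410 nm) change over 10 min converted to percent inhibition against tool-inhibitor controls; IC50 from 10-point half-log curves, four-parameter fit.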

[2] = brain, read-out: total brain conc.
[3] = brain, total corrected for unbound fraction in brain, read-out: free brain conc.
[4] = plasma, read-out: total plasma conc.
[5] = plasma, total corrected for unbound fraction in plasma, read-out: free plasma conc.

SMILES	concentration at 2 h [1, 2] [nM]	concentration at 2 h [1, 3] [nM]	Kp at 2 h ([1]; brain)	concentration at 2 h [1, 4] [nM]	concentration at 2 h [1, 5] [nM]	brain permeability (in words) [1]	IC50 (Recombinant human CD38) [nM]
O=C(N[C@H]1CC[C@H](NCC(F)(F)F)CC1)c1cn2ccnc2c(-n2ccnc2)n1 [Example 19, 8-(1H-imidazol-1-yl)-N-((1r,4r)-4-((2,2,2-trifluoroethyl)amino)cyclohexyl) imidazo[1,2-a]pyrazine-6-carboxamide]	864	218	0.22	5010	954	good brain permeability	≤ 40
O=C(N[C@H]1CC[C@H](NCC(F)(F)F)CC1)c1cn2ncnc2c(-n2ccnc2)n1 [Example 20, 8-(1H-imidazol-1-yl)-N-((1r,4r)-4-((2,2,2-trifluoroethyl)amino)cyclohexyl)-[1,2,4]triazolo[1,5-a]pyrazine-6-carboxamide]	1420	481	0.18	17900	2630	good brain permeability	≤ 40
O=C(N[C@H]1CC[C@H](NCC(F)(F)F)CC1)c1cn2nccc2c(-n2ccnc2)n1 [Example 21, 4-(1H-imidazol-1-yl)-N-((1r,4r)-4-((2,2,2-trifluoroethyl)amino)cyclohexyl)pyrazolo[1,5-a]pyrazine-6-carboxamide]	1500	507	0.2	8220	2470	good brain permeability	≤ 40
O=C(N[C@H]1CC[C@H](NCC(F)(F)F)CC1)c1nc(-n2ccnc2)nn2cccc12 [Example 29, 2-(1H-imidazol-1-yl)-N-((1r,4r)-4-((2,2,2-trifluoroethyl)amino)cyclohexyl)pyrrolo[2,1-f][1,2,4]triazine-4-carboxamide]	4920	319	0.39	19100	840	good brain permeability	≤ 40
O=C(N[C@H]1CC[C@H](N2CCC(F)(F)C2)CC1)c1cn2ccnc2c(-n2ccnc2)n1 [Example 41, N-((1r,4r)-4-(3,3-difluoropyrrolidin-1-yl)cyclohexyl)-8-(1H-imidazol-1-yl) imidazo[1,2-a]pyrazine-6-carboxamide]	1580	241	0.11	10600	2160	good brain permeability	≤ 100

Continued, values first:

concentration at 2 h [1, 2] [nM]	concentration at 2 h [1, 3] [nM]	Kp at 2 h ([1]; brain)	concentration at 2 h [1, 4] [nM]	concentration at 2 h [1, 5] [nM]	brain permeability (in words) [1]	IC50 (Recombinant human CD38) [nM]	SMILES
572	236	0.09	6310	2540	good brain permeability	≤ 40	O=C(N[C@H]1CC[C@H](NCC(F)(F)F)CC1)c1nc(-n2ccnc2)nc2ncccc12 [Example 4, 2-(1H-imidazol-1-yl)-N-((1r,4r)-4-((2,2,2-trifluoroethyl)amino)cyclohexyl)pyrido[2,3-d]pyrimidine-4-carboxamide]
8370	575	0.79	12600	788	good brain permeability	≤ 40	O=C(N[C@H]1CC[C@H](N2CCC(F)(F)C2)CC1)c1nc(-n2ccnc2)nn2cccc12 [Example 12, N-((1r,4r)-4-(3,3-difluoropyrrolidin-1-yl)cyclohexyl)-2-(1H-imidazol-1-yl)pyrrolo[2,1-f][1,2,4]triazine-4-carboxamide]
3380	189	0.23	3660	809	good brain permeability	≤ 40	O=C(N[C@H]1CC[C@H](N2CC[C@H](F)C2)CC1)c1nc(-n2ccnc2)nn2cccc12 [Example 13, N-((1S,4r)-4-((S)-3-fluoropyrrolidin-1-yl)cyclohexyl)-2-(1H-imidazol-1-yl)pyrrolo[2,1-f][1,2,4]triazine-4-carboxamide]
3320	181	0.19	3930	959	good brain permeability	≤ 40	O=C(N[C@H]1CC[C@H](N2CC[C@@H](F)C2)CC1)c1nc(-n2ccnc2)nn2cccc12 [Example 14, N-((1R,4r)-4-((R)-3-fluoropyrrolidin-1-yl)cyclohexyl)-2-(1H-imidazol-1-yl)pyrrolo[2,1-f][1,2,4]triazine-4-carboxamide]
2160	555	0.16	9340	3490	good brain permeability	≤ 40	O=C(N[C@H]1CC[C@H](N2CC(F)(F)C2)CC1)c1cn2ncnc2c(-n2ccnc2)n1 [Example 45, N-((1r,4r)-4-(3,3-difluoroazetidin-1-yl)cyclohexyl)-8-(1H-imidazol-1-yl)-[1,2,4]triazolo[1,5-a]pyrazine-6-carboxamide]
2570	403	0.2	8000	1980	good brain permeability	≤ 100	O=C(N[C@H]1CC[C@H](N2CCC(F)(F)C2)CC1)c1cn2ncnc2c(-n2ccnc2)n1 [Example 48, N-((1r,4r)-4-(3,3-difluoropyrrolidin-1-yl)cyclohexyl)-8-(1H-imidazol-1-yl)-[1,2,4]triazolo[1,5-a]pyrazine-6-carboxamide]
